Results reported in ChEMBL document CHEMBL3351649, “A new goniothalamin N-acylated aza-derivative strongly downregulates mediators of signaling transduction associated with pancreatic cancer aggressiveness” (Eur J Med Chem, 2014).
The source made the active and inactive calls. The calls are words filed in the database; no cut-off is given here.

Experiments:
[1] = (§1) Cytotoxicity against human PANC1 cells assessed as reduction in cell viability after 24 hrs by MTT reduction assay; assay type: functional, cell-based; conditions: PANC-1, 24 h
[2] = Chemical reactivity under non-physiological condition at 25 mM using gluthatione as thiol nucleophile assessed as conjugate addition of GSH to compound after 24 hrs by 1H NMR spectroscopy; assay type: physicochemical; conditions: 25000 µM
[3] = system: PANC-1; assay: as §1; assay type: functional, cell-based
[4] = biological target: Tyrosine-protein kinase receptor UFO (Homo sapiens) (UniProt P30530); assay: Effect on AXL in human PANC1 cells assessed as increase in p-ERK at Thr202/Tyr 204 protein level at 30 to 60 uM after 24 hrs by Western blot analysis; assay type: cell-based; conditions: PANC-1
Chain of Tyrosine-protein kinase receptor UFO (Homo sapiens) (P30530 whole entry): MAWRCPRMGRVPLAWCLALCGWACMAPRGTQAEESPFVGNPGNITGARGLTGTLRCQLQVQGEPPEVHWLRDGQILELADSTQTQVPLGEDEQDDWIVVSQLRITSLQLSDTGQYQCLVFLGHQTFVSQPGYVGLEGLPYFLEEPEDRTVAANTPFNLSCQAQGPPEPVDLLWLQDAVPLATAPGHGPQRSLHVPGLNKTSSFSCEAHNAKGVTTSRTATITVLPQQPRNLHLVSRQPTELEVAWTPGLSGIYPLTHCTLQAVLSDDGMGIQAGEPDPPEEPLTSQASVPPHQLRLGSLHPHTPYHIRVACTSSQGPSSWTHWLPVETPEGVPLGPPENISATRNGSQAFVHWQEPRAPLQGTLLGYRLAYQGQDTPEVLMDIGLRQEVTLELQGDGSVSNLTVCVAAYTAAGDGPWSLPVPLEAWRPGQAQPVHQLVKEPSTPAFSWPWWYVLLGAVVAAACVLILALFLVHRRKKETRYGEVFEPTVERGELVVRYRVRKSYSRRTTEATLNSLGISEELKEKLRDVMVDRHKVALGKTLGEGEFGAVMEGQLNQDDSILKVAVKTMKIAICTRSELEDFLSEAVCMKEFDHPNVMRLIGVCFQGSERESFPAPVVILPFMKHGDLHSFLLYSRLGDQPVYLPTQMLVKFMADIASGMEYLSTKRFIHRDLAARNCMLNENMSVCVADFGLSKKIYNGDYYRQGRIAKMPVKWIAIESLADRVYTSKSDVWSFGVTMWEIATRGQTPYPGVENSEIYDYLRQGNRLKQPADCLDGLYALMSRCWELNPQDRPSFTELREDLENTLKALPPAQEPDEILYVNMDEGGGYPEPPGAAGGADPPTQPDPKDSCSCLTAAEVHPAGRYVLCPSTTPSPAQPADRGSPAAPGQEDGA

[5] = Antiproliferative activity against human PANC1 cells assessed as reduction in colonies after 15 days by colony assay; assay type: functional, cell-based; conditions: PANC-1, 360 h
[6] = Antiproliferative activity against human PANC1 cells assessed as reduction in colonies at 15 uM after 15 days by colony assay; assay type: functional, PANC-1; design: scale not given: the % may be the effect or the level left
[7] = system: PANC-1; assay: Induction of intracellular ROS production in human PANC1 cells at 1.5 to 3 uM after 1 hr using DCFH-DA by flow cytometry; assay type: functional, cell-based
[8] = system: PANC-1; assay: Induction of apoptosis in human PANC1 cells assessed as reduction in pro-caspase-3 level at 30 to 60 uM after 24 hrs by Western blot analysis; assay type: functional, cell-based
[9] = system: PANC-1; assay: Cytoprotective activity in 1 hr GSH-pretreated human PANC1 cells assessed as increase in cell viability at 10 to 100 uM after 24 hrs by MTT reduction assay; assay type: functional, cell-based
[10] = system: HaCaT; assay: Cytotoxicity against human HaCaT cells assessed as reduction in cell viability after 24 hrs by MTT reduction assay; assay type: cell-based
[11] = system: PANC-1; assay: Reduction in AXL protein level in human PANC1 cells at 30 to 60 uM after 24 hrs by Western blot analysis; assay type: functional, cell-based
[12] = system: PANC-1; assay: Induction of apoptosis in human PANC1 cells assessed as increase in BAX/BCL-2 ratio at 30 to 60 uM after 24 hrs by Western blot analysis; assay type: functional, cell-based
[13] = system: PANC-1; assay: Reduction in c-Myc protein level in human PANC1 cells at 30 to 60 uM after 24 hrs by Western blot analysis; assay type: functional, cell-based
[14] = system: PANC-1; assay: Reduction in cyclin D1 protein level in human PANC1 cells at 30 to 60 uM after 24 hrs by Western blot analysis; assay type: functional, cell-based
[15] = system: PANC-1; assay: Reduction in p-RB at Ser795 protein level in human PANC1 cells at 30 to 60 uM after 24 hrs by Western blot analysis; assay type: functional, cell-based
[16] = Selectivity ratio of IC50 for human HaCaT cells to IC50 for human PANC1 cells; assay type: ADME, cell-based; conditions: HaCaT cells versus PANC1 cells, read-out: Ratio IC50
[17] = system: PANC-1; assay: Induction of apoptosis in human PANC1 cells assessed as increase in cleaved PARP-1 level at 30 to 60 uM after 24 hrs by Western blot analysis; assay type: functional, cell-based
[18] = Antiproliferative activity against human PANC1 cells assessed as reduction in colonies at 30 uM after 15 days by colony assay; assay type: functional, PANC-1; design: scale not given: the % may be the effect or the level left
[19] = system: PANC-1; assay: Reduction in AXL protein level in human PANC1 cells at 1.5 to 3 uM after 24 hrs by Western blot analysis; assay type: functional, cell-based
[20] = Antiproliferative activity against human PANC1 cells assessed as reduction in colonies at 1.5 uM after 15 days by colony assay; assay type: functional, PANC-1; design: scale not given: the % may be the effect or the level left
[21] = system: PANC-1; assay: Reduction in c-Myc protein level in human PANC1 cells at 1.5 to 3 uM after 24 hrs by Western blot analysis; assay type: functional, cell-based
[22] = system: PANC-1; assay: Induction of intracellular ROS production in human PANC1 cells at 25 to 100 uM after 1 hr using DCFH-DA by flow cytometry; assay type: functional, cell-based
[23] = biological target: Tyrosine-protein kinase receptor UFO (Homo sapiens) (UniProt P30530); assay: Inhibition of AXL in human PANC1 cells assessed as reduction in HIF-1alpha expression at 1.5 to 3 uM after 24 hrs by Western blot analysis; assay type: cell-based; conditions: PANC-1
[24] = biological target: Tyrosine-protein kinase receptor UFO (Homo sapiens) (UniProt P30530); assay: Inhibition of AXL in human PANC1 cells assessed as inhibition of ERK phosphorylation at Thr202/Tyr 204 at 1.5 to 3 uM after 24 hrs by Western blot analysis; assay type: cell-based; conditions: PANC-1
[25] = system: PANC-1; assay: Induction of apoptosis in human PANC1 cells assessed as increase in BAX/BCL-2 ratio at 1.5 to 3 uM after 24 hrs by Western blot analysis; assay type: functional, cell-based
[26] = system: PANC-1; assay: Induction of apoptosis in human PANC1 cells assessed as increase in cleaved PARP-1 level at 1.5 to 3 uM after 24 hrs by Western blot analysis; assay type: functional, cell-based
[27] = biological target: Tyrosine-protein kinase receptor UFO (Homo sapiens) (UniProt P30530); assay: Inhibition of AXL in human PANC1 cells assessed as reduction in VEGF level at 1.5 to 3 uM after 24 hrs by Western blot analysis; assay type: cell-based; conditions: PANC-1
[28] = Antiproliferative activity against human PANC1 cells assessed as reduction in colonies at 0.75 uM after 15 days by colony assay; assay type: functional, PANC-1; design: scale not given: the % may be the effect or the level left
[29] = system: PANC-1; assay: Reduction in cyclin D1 protein level in human PANC1 cells at 1.5 to 3 uM after 24 hrs by Western blot analysis; assay type: functional, cell-based
[30] = system: PANC-1; assay: Cytotoxicity against human PANC1 cells assessed as reduction in cell viability at 10 to 100 uM after 24 hrs by MTT reduction assay in presence of GSH; assay type: functional, cell-based
[31] = system: PANC-1; assay: Reduction in p-RB at Ser795 protein level in human PANC1 cells at 1.5 to 3 uM after 24 hrs by Western blot analysis; assay type: functional, cell-based
[32] = system: PANC-1; assay: Induction of apoptosis in human PANC1 cells assessed as reduction in pro-caspase-3 level at 1.5 to 3 uM after 24 hrs by Western blot analysis; assay type: functional, cell-based

## C/C=C/C(=O)N1C(=O)C=CCC1/C=C/c1ccccc1 (configuration not stated)
[1]
  IC50: 4.2 µM

## COc1cc(/C=C/C(=O)N2C(=O)C=CCC2/C=C/c2ccccc2)ccc1O (configuration not stated)
[1]
  IC50: 15.6 µM

## O=C1C=CCC(/C=C/c2ccccc2)N1 (configuration not stated)
[1]
  IC50: > 100 µM
[2]
  Activity: Not Active

## COC(=O)N1C(=O)C=CCC1/C=C/c1ccccc1 (configuration not stated)
[3]
  Activity: Dose-dependent effect
[1]
  IC50: 53.7 µM

## C=CC(=O)N1C(=O)C=CCC1/C=C/c1ccccc1 (configuration not stated)
[1]
  IC50: 8.1 µM

## O=C1C=CC[C@H](/C=C/c2ccccc2)O1 [GONIOTHALAMIN]
[4]
  Activity: Active
[5]
  IC50: 65 µM
[6]
  Activity: 50%
[7]
  Activity: Active
[8]
  Activity: Active
[9]
  Activity: Active
[10]
  IC50: 28.6 µM
[11]
  Activity: Active
[12]
  Activity: Active
[13]
  Activity: inactive
[14]
  Activity: Active
[15]
  Activity: Active
[16]
  selectivity ratio: 0.44
[17]
  Activity: Active
[3]
  Activity: Dose-dependent effect
[1]
  IC50: 65 µM
[18]
  Activity: 70%
[2]
  Activity: Active

## O=C1C=CCC(/C=C/c2ccccc2)N1C(=O)/C=C/c1ccc(O)c(O)c1 (configuration not stated)
[1]
  IC50: 5.7 µM

## O=C1C=CCC(/C=C/c2ccccc2)N1C(=O)CCc1ccc(O)c(O)c1 (configuration not stated)
[1]
  IC50: 6.8 µM

## COc1cc(/C=C/C(=O)N2C(=O)C=CCC2/C=C/c2ccccc2)cc(OC)c1OC (configuration not stated)
[5]
  IC50: 2.7 µM
[19]
  Activity: Active
[20]
  Activity: 90%
[21]
  Activity: Active
[22]
  Activity: Active
[23]
  inhibition: Active
[24]
  inhibition: Active
[25]
  Activity: Active
[26]
  Activity: Active
[10]
  IC50: 8.5 µM
[27]
  inhibition: Active
[28]
  Activity: 40%
[29]
  Activity: Active
[30]
  Activity: Dose-dependent effect
[31]
  Activity: Active
[16]
  selectivity ratio: 3.14
[1]
  IC50: 2.7 µM
[2]
  Activity: Active
[32]
  Activity: Active

## CC(=O)N1C(=O)C=CCC1/C=C/c1ccccc1 (configuration not stated)
[3]
  Activity: Dose-dependent effect
[1]
  IC50: 42.3 µM

## O=C1C=CCC(/C=C/c2ccccc2)N1C(=O)/C=C/c1ccccc1 (configuration not stated)
[1]
  IC50: 16.3 µM

## COc1cc(/C=C/C(=O)N2CCC=CC2=O)cc(OC)c1OC [PIPLARTINE]
[10]
  IC50: 16 µM
[16]
  selectivity ratio: 5
[1]
  IC50: 3.2 µM
